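Cultured in 96-well plates, cells were exposed to test compound for 48 hours across five concentrations. The concentration for 50% growth inhibition is given as GI50.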 The source made the active and inactive calls. Rule as the data show it: active = GI50 up to about 1.1 µM and inactive = higher.
Tests used:
Assay in all cases: inhibition of tumour cell growth, NCI panel, 48 h
786-0 = tested on: 786-0
HOP-18 = tested on: HOP-18
SNB-75 = tested on: SNB-75
SW-620 = tested on: SW-620
OVCAR-3 = tested on: OVCAR-3
KM-20L2 = tested on: KM-20L2
UACC-62 = tested on: UACC-62
OVCAR-8 = tested on: OVCAR-8
SK-OV-3 = tested on: SK-OV-3
MOLT-4 = tested on: MOLT-4
UO-31 = tested on: UO-31
SNB-19 = tested on: SNB-19
NCI-H23 = tested on: NCI-H23
OVCAR-4 = tested on: OVCAR-4
M14 = tested on: M14
SK-MEL-2 = tested on: SK-MEL-2
RXF 393 = tested on: RXF 393
SF-539 = tested on: SF-539
HCT-15 = tested on: HCT-15
HL-60 = tested on: HL-60
NCI-H522 = tested on: NCI-H522
SF-295 = tested on: SF-295
CCRF-CEM = tested on: CCRF-CEM
SF-268 = tested on: SF-268
A549 = tested on: A549
EKVX = tested on: EKVX
OVCAR-5 = tested on: OVCAR-5
LOX IMVI = tested on: LOX IMVI
HCT-116 = tested on: HCT-116
HCC 2998 = tested on: HCC 2998
KM12 = tested on: KM12
IGROV-1 = tested on: IGROV-1
UACC-257 = tested on: UACC-257
SK-MEL-28 = tested on: SK-MEL-28
SK-MEL-5 = tested on: SK-MEL-5
LXFL 529 = tested on: LXFL 529
HOP-92 = tested on: HOP-92
A498 = tested on: A498
DMS-273 = tested on: DMS-273
ACHN = tested on: ACHN
SNB-78 = tested on: SNB-78
M19-MEL = tested on: M19-MEL
Malme-3M = tested on: Malme-3M
COLO 205 = tested on: COLO 205
DLD-1 = tested on: DLD-1
CAKI-1 = tested on: CAKI-1
TK-10 = tested on: TK-10
DMS-114 = tested on: DMS-114
RPMI-8226 = tested on: RPMI-8226
U-251 = tested on: U-251
NCI-H226 = tested on: NCI-H226
K562 = tested on: K562
SN12C = tested on: SN12C
HT-29 = tested on: HT-29
SR = tested on: SR
HOP-62 = tested on: HOP-62
NCI-H460 = tested on: NCI-H460

Measured: GI50

O=c1c2ccccc2c(=O)n2n1CC=CC2
inactive: 786-0 > 100 µM | HOP-18 > 100 µM | SNB-75 > 100 µM | SW-620 > 100 µM | OVCAR-3 > 100 µM | KM-20L2 > 100 µM | UACC-62 > 100 µM | OVCAR-8 > 100 µM | SK-OV-3 > 100 µM | MOLT-4 > 100 µM | UO-31 > 100 µM | SNB-19 > 100 µM | NCI-H23 > 100 µM | OVCAR-4 > 100 µM | M14 > 100 µM | SK-MEL-2 > 100 µM | RXF 393 > 100 µM | SF-539 > 100 µM | HL-60 > 100 µM | NCI-H522 > 100 µM | SF-295 > 100 µM | CCRF-CEM > 100 µM | SF-268 > 100 µM | A549 > 100 µM | EKVX > 100 µM | OVCAR-5 > 100 µM | LOX IMVI > 100 µM | HCT-116 > 100 µM | HCC 2998 > 100 µM | KM12 > 100 µM | IGROV-1 > 100 µM | UACC-257 > 100 µM | SK-MEL-28 > 100 µM | SK-MEL-5 > 100 µM | LXFL 529 > 100 µM | HOP-92 > 100 µM | A498 > 100 µM | DMS-273 > 100 µM | ACHN > 100 µM | SNB-78 > 100 µM | M19-MEL > 100 µM | Malme-3M > 100 µM | COLO 205 > 100 µM | DLD-1 > 100 µM | CAKI-1 > 100 µM | TK-10 > 100 µM | DMS-114 > 100 µM | RPMI-8226 > 100 µM | U-251 > 100 µM | NCI-H226 > 100 µM | K562 > 100 µM | SN12C > 100 µM | HT-29 > 100 µM
> 100 µM: HCT-15

CC(NC(=O)c1ccccc1)C(=O)N(Cc1ccccc1)Cc1ccccc1 (stereo unspecified)
32.1 µM: HCT-15
inactive: 786-0 37.6 µM | SNB-75 > 100 µM | SW-620 51.1 µM | KM-20L2 26.2 µM | UACC-62 16.4 µM | SK-OV-3 33.7 µM | MOLT-4 14.1 µM | SR 29.9 µM | UO-31 27.5 µM | SNB-19 36.1 µM | NCI-H23 24.5 µM | OVCAR-4 31.2 µM | M14 21 µM | SK-MEL-2 20.7 µM | RXF 393 26.5 µM | SF-539 55.3 µM | NCI-H522 23.7 µM | SF-295 27.4 µM | CCRF-CEM 21.6 µM | SF-268 35.4 µM | A549 30.2 µM | OVCAR-5 33 µM | LOX IMVI 22.1 µM | HCT-116 25.2 µM | HCC 2998 35.6 µM | KM12 26.6 µM | IGROV-1 34 µM | UACC-257 40.2 µM | SK-MEL-28 25.7 µM | SK-MEL-5 22.5 µM | LXFL 529 18.4 µM | HOP-92 23.6 µM | A498 25.6 µM | DMS-273 21.3 µM | ACHN 31.7 µM | SNB-78 27.7 µM | M19-MEL 24.4 µM | Malme-3M 24.5 µM | HOP-62 25.1 µM | COLO 205 19.2 µM | DLD-1 31.4 µM | CAKI-1 34.9 µM | TK-10 60.1 µM | DMS-114 19 µM | RPMI-8226 21 µM | U-251 29.8 µM | NCI-H226 23.4 µM | NCI-H460 27.4 µM | K562 15.3 µM | SN12C 37.4 µM | HT-29 37.1 µM
